Measurements taken from PubChem BioAssay AID1963438 (Molecular Pharmacology Branch, DTP, NCI, 2024).

Tested on: NCI-H510 multicellular tumor spheroid growth, % test/control
Experiment: Anticancer human tumor NCI-H510 cell line growth inhibition [Asc];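 further: spheroids exposed to agents for 7 days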;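 on viability, T/C: 100% = DMSO vehicle control wells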
Conditions: for IC50: curve of first compound; for viability, T/C: stronger effect = lower value; active means viability on the fitted dose curve at most 10% of control; inactive means the rest
Procedure, shortened: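 Complex spheroids combining tumor cells with HUVEC endothelial cells and human MSCs, at 37 degrees C, 5% CO2; agents tested alone or combined, half-log dilutions from at or near clinical Cmax, or 10 microM if Cmax unknown.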

[1] = second compound 0.1 µM, first compound 0.00316 µM
[2] = second compound 0.1 µM, first compound 0.01 µM
[3] = second compound 0.1 µM, first compound 0.0316 µM
[4] = second compound 0.1 µM, first compound 0.1 µM
[5] = second compound 0.316 µM, first compound 0.00316 µM
[6] = second compound 0.316 µM, first compound 0.01 µM
[7] = second compound 0.316 µM, first compound 0.0316 µM
[8] = second compound 0.316 µM, first compound 0.1 µM
[9] = second compound 1 µM, first compound 0.00316 µM
[10] = second compound 1 µM, first compound 0.01 µM
[11] = second compound 1 µM, first compound 0.0316 µM
[12] = second compound 1 µM, first compound 0.1 µM
[13] = second compound 3.16 µM, first compound 0.00316 µM
[14] = second compound 3.16 µM, first compound 0.01 µM
[15] = second compound 3.16 µM, first compound 0.0316 µM
[16] = second compound 3.16 µM, first compound 0.1 µM
[17] = second compound 10 µM, first compound 0.00316 µM
[18] = second compound 10 µM, first compound 0.01 µM
[19] = second compound 10 µM, first compound 0.0316 µM
[20] = second compound 10 µM, first compound 0.1 µM

COc1c(OCCCN2CCOCC2)ccc2c3n(c(=NC(=O)c4cnc(N)nc4)nc12)CCN3 + Cc1c(S(C)(=O)=O)c(-c2cc(F)cc(N3CCN(c4ccc(NS(=O)(=O)c5ccc(NC(CCN6CCC(C(=O)OCCCP(=O)(O)O)CC6)CSc6ccccc6)c(S(=O)(=O)C(F)(F)F)c5)cc4)CC3)c2)c(-c2ccc(Cl)cc2)n1C(C)C
231 nM: IC50 (second compound 10 µM)
> 1000 nM: IC50 (second compound 0.1 µM) | IC50 (second compound 0.316 µM) | IC50 (second compound 1 µM) | IC50 (second compound 3.16 µM)
inactive: viability, T/C [1] 112% | viability, T/C [2] 106% | viability, T/C [3] 88.9% | viability, T/C [4] 89.3% | viability, T/C (second compound 0.1 µM, first compound 0.316 µM) 96.4% | viability, T/C (second compound 0.1 µM, first compound 1 µM) 84.3% | viability, T/C [5] 102% | viability, T/C [6] 99.6% | viability, T/C [7] 70.3% | viability, T/C [8] 75% | viability, T/C (second compound 0.316 µM, first compound 0.316 µM) 89.1% | viability, T/C (second compound 0.316 µM, first compound 1 µM) 53.6% | viability, T/C [9] 99.8% | viability, T/C [10] 98.1% | viability, T/C [11] 106% | viability, T/C [12] 91.2% | viability, T/C (second compound 1 µM, first compound 0.316 µM) 67.5% | viability, T/C (second compound 1 µM, first compound 1 µM) 86.1% | viability, T/C [13] 89.4% | viability, T/C [14] 91.6% | viability, T/C [15] 82.6% | viability, T/C [16] 80% | viability, T/C (second compound 3.16 µM, first compound 0.316 µM) 82.6% | viability, T/C (second compound 3.16 µM, first compound 1 µM) 63.8% | viability, T/C [17] 66% | viability, T/C [18] 98.4% | viability, T/C [19] 70.9% | viability, T/C [20] 96.3% | viability, T/C (second compound 10 µM, first compound 0.316 µM) 37.6% | viability, T/C (second compound 10 µM, first compound 1 µM) 32.2%

NC(=O)C(=Cn1cnc(-c2cc(C(F)(F)F)cc(C(F)(F)F)c2)n1)c1cncnc1 + Cc1c(S(C)(=O)=O)c(-c2cc(F)cc(N3CCN(c4ccc(NS(=O)(=O)c5ccc(NC(CCN6CCC(C(=O)OCCCP(=O)(O)O)CC6)CSc6ccccc6)c(S(=O)(=O)C(F)(F)F)c5)cc4)CC3)c2)c(-c2ccc(Cl)cc2)n1C(C)C
53.4 nM: IC50 (second compound 10 µM)
126 nM: IC50 (second compound 0.316 µM)
169 nM: IC50 (second compound 3.16 µM)
active: viability, T/C (second compound 0.316 µM, first compound 0.3 µM) 4.66% | viability, T/C (second compound 1 µM, first compound 0.3 µM) 6.15% | viability, T/C (second compound 10 µM, first compound 0.3 µM) 1.98%
inactive: viability, T/C (second compound 0.1 µM, first compound 0.000949 µM) 87% | viability, T/C (second compound 0.1 µM, first compound 0.003 µM) 76.6% | viability, T/C (second compound 0.1 µM, first compound 0.00949 µM) 109% | viability, T/C (second compound 0.1 µM, first compound 0.03 µM) 74.3% | viability, T/C (second compound 0.1 µM, first compound 0.0949 µM) 86.7% | viability, T/C (second compound 0.1 µM, first compound 0.3 µM) 29.6% | viability, T/C (second compound 0.316 µM, first compound 0.000949 µM) 102% | viability, T/C (second compound 0.316 µM, first compound 0.003 µM) 73.5% | viability, T/C (second compound 0.316 µM, first compound 0.00949 µM) 103% | viability, T/C (second compound 0.316 µM, first compound 0.03 µM) 78.2% | viability, T/C (second compound 0.316 µM, first compound 0.0949 µM) 66.8% | viability, T/C (second compound 1 µM, first compound 0.000949 µM) 88.5% | viability, T/C (second compound 1 µM, first compound 0.003 µM) 76.9% | viability, T/C (second compound 1 µM, first compound 0.00949 µM) 88.9% | viability, T/C (second compound 1 µM, first compound 0.03 µM) 74% | viability, T/C (second compound 1 µM, first compound 0.0949 µM) 43% | viability, T/C (second compound 3.16 µM, first compound 0.000949 µM) 79.2% | viability, T/C (second compound 3.16 µM, first compound 0.003 µM) 88.6% | viability, T/C (second compound 3.16 µM, first compound 0.00949 µM) 94.8% | viability, T/C (second compound 3.16 µM, first compound 0.03 µM) 59.2% | viability, T/C (second compound 3.16 µM, first compound 0.0949 µM) 89% | viability, T/C (second compound 3.16 µM, first compound 0.3 µM) 18.3% | viability, T/C (second compound 10 µM, first compound 0.000949 µM) 76.1% | viability, T/C (second compound 10 µM, first compound 0.003 µM) 84.5% | viability, T/C (second compound 10 µM, first compound 0.00949 µM) 59.3% | viability, T/C (second compound 10 µM, first compound 0.03 µM) 70% | viability, T/C (second compound 10 µM, first compound 0.0949 µM) 35%
73.4 nM: IC50 (second compound 1 µM)
199 nM: IC50 (second compound 0.1 µM)

NC1CCC(NC2CC2c2ccccc2)CC1 (stereo not given) + Cc1c(S(C)(=O)=O)c(-c2cc(F)cc(N3CCN(c4ccc(NS(=O)(=O)c5ccc(NC(CCN6CCC(C(=O)OCCCP(=O)(O)O)CC6)CSc6ccccc6)c(S(=O)(=O)C(F)(F)F)c5)cc4)CC3)c2)c(-c2ccc(Cl)cc2)n1C(C)C
inactive: viability, T/C (second compound 0.1 µM, first compound 0.000316 µM) 88.8% | viability, T/C (second compound 0.1 µM, first compound 0.001 µM) 85% | viability, T/C [1] 74.1% | viability, T/C [2] 87.7% | viability, T/C [3] 67.5% | viability, T/C [4] 90.4% | viability, T/C (second compound 0.316 µM, first compound 0.000316 µM) 86.1% | viability, T/C (second compound 0.316 µM, first compound 0.001 µM) 85.8% | viability, T/C [5] 76.9% | viability, T/C [6] 66.5% | viability, T/C [7] 78.4% | viability, T/C [8] 97.9% | viability, T/C (second compound 1 µM, first compound 0.000316 µM) 116% | viability, T/C (second compound 1 µM, first compound 0.001 µM) 77.8% | viability, T/C [9] 63.8% | viability, T/C [10] 67.1% | viability, T/C [11] 64% | viability, T/C [12] 59.6% | viability, T/C (second compound 3.16 µM, first compound 0.000316 µM) 81% | viability, T/C (second compound 3.16 µM, first compound 0.001 µM) 80.2% | viability, T/C [13] 74.8% | viability, T/C [14] 67.1% | viability, T/C [15] 80.6% | viability, T/C [16] 69.9% | viability, T/C (second compound 10 µM, first compound 0.000316 µM) 66.8% | viability, T/C (second compound 10 µM, first compound 0.001 µM) 63.1% | viability, T/C [17] 63.6% | viability, T/C [18] 91% | viability, T/C [19] 102% | viability, T/C [20] 36.1%
> 100 nM: IC50 (second compound 0.1 µM) | IC50 (second compound 0.316 µM) | IC50 (second compound 1 µM) | IC50 (second compound 3.16 µM) | IC50 (second compound 10 µM)
